One assay relates to male Sprague Dawley rats. Nature of the assay: Intranasal drug delivery snort model, EEG/EMG sleep-wake behavior in rats. Type of assay: in vivo, rat. On the procedure:
Formulation of Intranasal Drugs. Modafinil (Sigma) was solubilized using LME comprised of equal amounts of olive oil and phosphatidyl serine sonicated in succinate buffer, pH 8; modafinil concentrations 0.2 and 2 mg/ml. Control rats received either saline alone or lipid emulsion in succinate buffer, pH 8
Animals and surgery. Anesthetized male Sprague Dawley rats (250-350 g) were implanted with sleep recording electrodes to monitor electroencephalographic (EEG) and electromyographic (EMG) activities. A femoral vein catheter was also implanted and dorsally extended subcutaneously to exit at the posterior end of the EEG/EMG implant. The rats were individually housed in a controlled environment (12 h lights on/off; lights on, 8 am) with access to food and water ad libitum. The animals were allowed to recover for approximately 7-10 days following surgery and habituated to the recording chambers. Baseline behavior was continuously recorded for 48 to 60 h prior to experiment initiation and for at least 24 h post drug administration. Rats were sacrificed by pentobarbital administration (200 mg/kg, i.v.) into the femoral catheter without handling the animal, Greco et al., Neuroscience. 1999; 93(4):1369-74; Vazquez et al., J Cell Biochem. 2008 Dec. 15; 105(6):1472-84.
Intranasal drug delivery—snort model. Three hours into the lights on period, each rat was anesthetized with ˜3% isoflurane in O2 and placed on its back. The head and neck of the rat remained flat and horizontal throughout the entire procedure to prevent any drug from draining down the back of the throat. Reflexes were monitored periodically and anesthetic level was reduced to ˜1.5% isoflurane in O2 for anesthesia maintenance. Each drug was given in 6-7 ul administered with a manual pipette every 2 minutes into alternating nostrils (total volume=50 ul). Two minutes after the last drop was administered, the rat was removed from anesthesia, reconnected to the tethering cable and placed in the recording chamber. The effect of intranasal drug delivery on sleep-wake behavior was monitored for 24 h post-intranasal drug delivery.
Results. Rats awakened within one minute post modafinil administration. Control rats awoke within 3-5 minutes after termination of anesthesia. EEG and EMG activity during wakefulness, slow wave sleep (SWS), and rapid eye movement (REM) sleep were captured digitally, and subsequently scored manually in 10 sec epochs, averaged into one minute bins and represented graphically by hour for approximately 5 to 8 h post drug delivery. Representative individual hypnograms show the wake-promoting effects via intranasal delivery directly to the CNS. Modafinil induced wakefulness in rats at a 100-fold lower dose via our intranasal route than what has been previously published using traditional routes of administration (ie. i.v., oral).
We designed protocols to further optimize concentrations of sleep and wake promoting drugs for intranasal delivery. In exemplary experiments, the drugs are administered to rats in the following concentrations: Modafinil: 0.2 mg/ml (n=3), 0.1 mg/ml (n=3), 0 (LME only, n=3), and the rats instrumented and tested as detailed above.
Sleep Scoring and Statistical Analyses. EEG/EMG recordings are scored using SleepSign™ for Animals (Kissei Comtec, Irvine, Calif.), manually verified for accuracy and stored to disk. Waking is identified by the presence of desynchronized EEG readings and high EMG activity. SWS is identified by high amplitude slow waves together with a low EMG tone relative to waking. REM sleep is identified by the presence of regular theta activity coupled with low EMG relative to SWS. REM sleep is scored only when it follows at least a 15 s episode of SWS. All sleep-wake parameters are analyzed for each hour of the recording periods, then averaged to yield 24 h baseline estimates. A similar analysis is performed prior to and post intranasal drug administration. […]

For a further assay, the system named is healthy male subjects. Description: Intranasal modafinil in chronically sleep deprived humans (simulated military operation, 18 h continuous work). Type of assay: in vivo, human. The conditions noted are these: 2, 10, 50 and 200 ug groups, VIANASE or OPTINOSE, given 9 h into the work period; versus LME-only and systemically-administered modafinil controls. On the procedure:
4. Efficacy of our intranasal drug delivery in chronically sleep deprived humans is also readily confirmed using established methods. Our preferred protocol is based on the results of a series of experiments that tested the treatment efficacy of a hypnotic-stimulant combination to maintain sleep quality, performance, and alertness (Batéjat, et al., Aviat Space Environ Med. 2006 May; 77(5):515-25). Here, healthy male subjects are given zolpidem then allowed to sleep for 6 h prior to being subjected to a simulated military operation of 18 h continuous work. Modafinil (2, 10, 50 and 200 ug dosage treatment groups) is administered using (a) VIANASE electronic atomizer (Bothell, Wash.) or (b) OPTINOSE nasal delivery system (Oslo, Norway) 9 h into the work period. The effects of drugs on sleep-wake behavior (EEG recordings), cortical activation (Critical Flicker Frequency test) and performance levels (reaction time, memory search, attention, dual task, computerized Stroop tests) are monitored.

Another assay concerns rats. Description: Chronic sleep deprivation paradigm, EEG/EMG recordings and roto-rod performance. In kind it is in vivo, rat. The conditions noted are these: rats deprived of sleep 6 h on 3 consecutive days. On the procedure:
In our chronic sleep deprivation paradigm rats are deprived of sleep for 6 h on 3 consecutive days starting at the beginning of the lights on period, when the pressure to sleep is maximal. The sleep deprivation begins with the administration of modafinil and is immediately followed by roto-rod testing. EEG/EMG recordings resumes once the rats are returned to the cage. If needed, the rats are kept awake for the remainder of the deprivation period by gentle handling. At the end of the sleep deprivation, the rats are again subjected to roto-rod testing. The sleep deprivation protocol is executed for 3 consecutive days. On the third day, half of the rats are sacrificed immediately following the sleep deprivation period. A second group of rats are sacrificed after 1-2 h of recovery sleep (RS). […]
In this protocol, the intranasal delivery of modafinil is assayed by two behavioral indicies—EEG/EMG recordings of sleep-wakefulness and performance (wheel running, roto-rod assay). […] The EEG/EMG data is analyzed as detailed above. For the roto-rod testing, the amount of time each rat spends on the wheel is analyzed and compared to control. Qualitative and quantitative analysis sets are generated and descriptive statistical comparisons and two-way ANOVA with post hoc multiple comparisons are used to evaluate changes in behavior/wheel running as a function of the day and drug, assuming equal variances.
On the technique in general: The rotarod test checks motor coordination on a turning rod.

SMILES strings stand for the structures.

For `NC(=O)C[S+]([O-])C(c1ccccc1)c1ccccc1` (stereo not drawn) [Modafinil], the “effective dose, body-weight equivalent” value in the assay on male Sprague Dawley rats (2.5 ug to a 350 g rat) is 7.14 µg/kg. The compound also registered a translated human dose in the assay with male Sprague Dawley rats (based on a human weighing 70 kg, from the rat effective dose) of 0.5 mg. For the same compound, the effective dose administered in the assay on male Sprague Dawley rats (in 50 ul of LME to a 350 g rat, intranasal) worked out at 2.5 µg. The “fold lower dose inducing wakefulness via intranasal route than published for traditional routes (i.v., oral)” value in the assay on male Sprague Dawley rats (rat, intranasal LME) is 100 fold. In the assay with male Sprague Dawley rats (rat, intranasal snort delivery in LME under isoflurane anesthesia, control rats awoke within 3-5 minutes after termination of anesthesia), the “time to awakening post modafinil administration” value is listed as “one”. In addition, the “effective concentration of modafinil in the lipid microemulsion” value in the assay with male Sprague Dawley rats (rat, intranasal, 50 ul of LME) is 0.05 mg/mL. In addition, the “effect of attempting to deliver an intranasal dose comparable to that given orally” value in the assay with male Sprague Dawley rats (rat, under isoflurane anesthesia) is “the excitatory effects overcame the anesthesia and the animals woke up”. Besides, the “performance and alertness throughout the 18 h work period” value in the assay on healthy male subjects is “maintain elevated performance and alertness over LME-only negative controls and even over systemically-administered modafinil positive-controls”. Further, the “effectiveness of intranasal delivery under chronic stressful conditions” value with rats is recorded as “Our results confirm the effectiveness of intranasal delivery of modafinil under chronic stressful conditions”.

Source of the values: patent US7989502B2, “Intranasal delivery of modafinil” (SRI International, priority 2009, dated 2011).
